According to patent US9920069B2, “Compounds for treatment of fluoroquinolone-resistant bacteria” (The Board of Trustees of the University of Illinois, priority 2014, dated 2018):
Converted amounts (≈) assume the structure as drawn. Marks after values point to notes of the source that are not given here.

Experiments:
[1] = tested on: low level CIP resistant strains of S. aureus ATCC 29213 (ParC mutation); assay: microbe, parasite or virus in culture; assay type: cell-based; conditions: Staphylococcus aureus, ATCC29213
[2] = tested on: A. baumannii KB349; conditions: starred: previously determined; cited from earlier work
[3] = tested on: A. baumannii KB304; conditions: starred: previously determined; cited from earlier work
[4] = tested on: Enterococcus ATCC 29212; assay: organism not typed; assay type: cell-based, E. faecalis
[5] = tested on: Enterococcus ATCC 19433; assay: organism not typed; assay type: cell-based, E. faecalis

O=C(O)c1cn(C2CC2)c2cc(N3CCNCC3)c(F)cc2c1=O [CIP, ciprofloxacin, reference compound]
MIC [1]: 4 to 8 µg/mL (≈ 12.1 to 24.1 µM)
CIP MIC [2]: >32* μg mL^−1
CIP MIC [3]: 24* ^ μg mL^−1
MIC [4]: 0.5 to 2 µg/mL (≈ 1.51 to 6.04 µM)
CIP (S/I/R) ([4]; ATCC 29212): S (sensitive (S) if it had an MIC≤4 μg mL^−1)
MIC [5]: 2 µg/mL (≈ 6.04 µM)
CIP (S/I/R) ([5]; ATCC 19433): S (sensitive (S) if it had an MIC≤4 μg mL^−1)
